Source: patent US11931444B2, “Topical composition” (DSM IP Assets B.V., priority 2018, dated 2024)

Legend:
[1] = Particle size by laser diffraction (Malvern Mastersizer 2000) and/or Coulter Delsa Nano S; type: physicochemical
From the text: The term ‘mean particle size’ as used herein refers to the mean number-based particle size distribution Dn50 (also known as Dn0.5) as determined by laser diffraction e.g. with a Malvern Mastersizer 2000 (ISO 13320:2009).
All particles sizes have been determined by laser diffraction with a Malvern Mastersizer 2000 according to the method as outlined in ISO 13320:2009 and/or a Coulter Delsa Nano S (dynamic laser scattering).

[2] = Polarity index (interfacial tension of the oil with respect to water); type: physicochemical; details: for polarity index: Table 1, printed under the ingredient name; for polarity index mN/m: Table 2
From the text: The term “polarity index” is a parameter which is known to the person skilled in the art. The polarity of an oil is defined as the polarity index (interfacial tension) of the oil with respect to water. The interfacial tension, i. e. the polarity index, can be particularly determined using a ring tensiometer (e.g., Krüss K 10), which measures the interfacial tension in mN/m in analogy to the ASTM method D971-99a (2004).

Row | polarity index [2] | polarity index mN/m [2] [mN/m] | Compound | Particle size Dn50 [1] [nm]
1 | – | – | c1ccc2oc(-c3ccc(-c4nc5ccccc5o4)cc3)nc2c1 [DBO-400 (A), 1,4-di(benzoxazol-2′-yl)benzene] | 380
2 | 11.6 mN/m) | 11.6 | CC(C)OC(=O)CCCCC(=O)OC(C)C [Diiso propyl adipate, Diisopropyl Adipate] | –
3 | (polarity index 43.8 mN/m) | 43.8 | CCCCCCCCCCCCCC(C)C [Isohexadecane] | –
4 | – | 36.2 | Isocetyl Stearate | –
